According to patent US12667584B2, “Adenosine analog and its use in regulating the circadian clock” (NATIONAL INSTITUTE OF BIOLOGICAL SCIENCES, BEIJING, priority 2017, dated 2026):
Where two headings read alike, the source gives them in different places.

Assays:
Per2:luc U2OS cells = assay: Real-time monitoring of circadian oscillation in lumicycle, Per2:luc U2OS cells; type: cell-based, human; settings: for effect on the clock phase: in words
Procedure: Cell culture, drug treatment and Real-Time Monitoring of Circadian Oscillations: Per2-Luc reporter U2OS cells (D15) and Bmal1-Luc reporter U2OS cells (C26) cells were kept in DMEM medium (Gibco), supplemented with 10% FBS (Gibco) and 1% penicillin streptomycin mixture (Gibco). For Circadian Oscillation monitored with lumicycle (Actimetrics), cells were seeded at the density of 10^6 per 3.5 cm dish (Z688851-30EA). The medium was changed into XM medium (PH7.2, 10 mM HEPES, 350 mg/I bicarbonate, 1×B27, 100 IU/ml penicillin, 100 μg/ml streptomycin, 10 μg/ml gentamycin, and 100 μM d-Luciferin) 2 days after cell seeding. 3.5 cm dish was then sealed with high-vacuum grease (Dow Corning) and microscope cover glass, and transferred into lumicycle which was placed in an incubator (37° C.). For Drug treatment, 3.5 cm dish was taken out from lumicycle quickly at indicated time. After chemical was added into the medium, the dish was sealed again and put back into lumicycle. For Circadian Oscillation monitored with Tecan (Perkinelmer), cells were seeded at the density of […] per well for 384-well plate (CLS3610-48EA). 2 days later, the medium was changed into premixed XM medium with different chemicals with or without pentostatin (5 μg/ml). The plate was then sealing with sealing film (Sangon Biotech) and put into Tecan. Data from cells were collected in the Tecan luminometer at 37° C. for 5˜7 days.
The inventors conducted a chemical screen using the human osteosarcoma U2OS cell line so as to discover small molecules that modify the phase of the intracellular clock in mammals. In the primary screen, the inventors used two reporter lines of U2OS harboring a luciferase gene under control of either Per2 or Bmal1 promoter (named Per2-dLuc or Bmal1-dLuc cells), and set the threshold for at least 6 h phase-changes with no apparent amplitude-reduction in both cell lines. […] An institutional pilot chemical library consisting of approximately 10,000 small molecules was applied in this study. […] The inventors set to allow a free-run of the clock before administration of the compound over the course in order to eliminate the possibility that this phase-changing phenomenon was due to a combinative phenotype of medium-change plus the compound effect.
Circadian clock is a transcriptional based feedback loop, however different clock genes contain different cis-element and may show different response to the same stimulation. […] Since the close similar structure with adenosine and potential function of inhibiting transcription by preventing mRNA elongation, we tested whether adenosine and other deoxynucleoside could shift circadian phase. […] Therefore we further tested whether cordycepin utilize adenosine transporter to enter cell or utilize adenosine deaminase to degrade.
One prominent character of zeitgeiber is phase dependent function. Therefore, we further tested whether cordycepin also has the character.

C57BL/6j mice = assay: Wheel running jet-lag experiment, 8 h phase advance or delay; type: in vivo, mouse; settings: for With Pentostadin Cell Assay: Dose effect: 15 mg/kg
Procedure: Wheel running experiment: Male C57Bj/6 mice at 7 w old were purchased from the Nanjing Biomedical Research Institute of Nanjing University introduced from Jackson Laboratory, housed in individually wheel-running cage in a temperature- and humidity-controlled SPF facility, with ad libitum access to food and water. The animals were entrained under 12 h light/dark photoperiod for two weeks to synchronize the endogenous circadian clock of the mice to the ambient light-dark cycle, light intensity is about 50˜100 lux. After synchronization, light-dark cycles were 8-hr phase-advanced or phase-delayed. On the day of light-dark cycle was shifted advance, mice were firstly fasted at CT 3, then 15 mg/kg bw CA03, 15 and 30 mg/kg bw pro-CA03, 15 and 30 mg/kg bw pro-CA04 or DMSO were intraperitoneal injection at CT 12, and light on time (CT 0) was shifted from 7 am to 11 pm), finally re-feed and inject drug again at CT 23 of the old light-dark cycle. CA03 and pro-CA04 were firstly dissolved in DMSO to the concentration of 200 μg/μl, then dilute with saline to the final concentration of 1000 μg/ml for intraperitoneal injection. Pro-03 was firstly dissolved in DMSO to the concentration of 200 μg/μl, then dilute with 2% tween80 (in sterilized water) to the final concentration of 1000 μg/ml for intraperitoneal injection. On the day of light-dark cycle was shifted delayed, mice were firstly fasted at ZT 3, then 15 mg/kg bw CA03, 15 and 30 mg/kg bw pro-CA03, 15 and 30 mg/kg bw pro-CA04 or DMSO were intraperitoneal injection at CT 12, and light off time (CT12) was shifted from […] to 3 am), finally re-feed and inject drug again at CT 23 of the old light-dark cycle. Locomotor activity was recorded in 10-min bins wheel running (Actimetrics), and the data obtained were analysed with Clocklab software (Actimetrics). All animal experimental procedures were performed in accordance with the protocol approved by the Institutional Animal Care and Usage Committee (IACUC) of the National Institute of Biological Sciences, Beijing.
Under a standard jet-lag protocol {Yamaguchi, 2013}, wild-type C57BL/6j mice usually take ˜10 d to adapt to 8 h phase advance. […] Similarly, the drug treated mice adapt faster to the phase delay (FIG. 2D&2E).
To test whether cordycepin function in vivo, we firstly tested luciferase signal level by live imaging of Per2:LUC mice after intraperitoneal injection of 15 mg/kg cordycepin or DMSO. We found cordycepin induce more than 4 folds increase of luciferase signal in liver when compared with DMSO control (A). […] We also reconfirmed endogenous transcription rate of core clock genes by measuring the pre-mRNA with qPCR in the liver (B). We examined RRE genes (including Bmal1, Clock, Npas2, Cry1 and Nfil3), internal control genes (including Gapdh, Tbp and Actin) and E-box genes (including Per1, Per2, Dbp and Nr1d1). We designed at least 2 primers for each gene. […] Prior evaluation the jet-leg cure ability of cordycepin, we detected whether cordycepin and it's prodrug pro-CA03 can penetrate BBB. We injected cordycepin or pro-CA03 via tail vein and time course sampled CSF and analyzed cordycepin pro-CA03 level with HPLC-MASS method. […] Finally we evaluated the jet-leg cure ability of cordycepin, pro-CA03 and Pro-CA04 with mice behavioral experiment. Wild-type C57BL/6j mice typically take ˜10 days to adapt to an 8 h phase advance. […]

SCN culture slice = assay: Ex vivo SCN slice culture from Per2::LUC mice, lumicycle; type: cell-based, mouse
Source text: Tissue culture, drug treatment and Real-Time Monitoring of Circadian Oscillations: 8 week-old male mPer2 Luciferase knockin mice were Sacrificed cervical dislocation. Then wipe the skin and neck with cotton containing 70% ethanol in a sterile hood. For SCN slice culture, firstly remove the eye balls from the head with scissors, decapitate and cut the skin. Then open the skull, remove all bone until the olfactory bulbs can be seen, cut the optic nerve between the olfactory bulbs and the hemispheres, and finally harvest the whole brain into ice cold HBSS. Trim the brain in HBSS by removing the cerebellum and olfactory bulbs. Attach the brain to a sample tray by glue with the rostral tip upwards and ventral surface closest to the cutting blade, then immediately fill the tray with ice cold HBSS and set the tray to the vibratome. Set the vibratome frequency at the maximum and the speed to the medium. To reach the SCN area quickly, the start cutting off thicker sections should be 500-800 μm. Reduce the sections thicker to 100 μm when the optic chiasm becomes wider. When the two SCN nuclei start to appear, collect the slice with transfer pipettes and check slices under dissecting microscope. […] Data was extract and analyzed with LumiCycle Analysis software. […]

E-box genes = assay: Nascent pre-mRNA sequencing (nascent-seq) of U2OS cells; type: cell-based, human
Source text: Manipulating DRB's well characterized target CDK9 protein with AID degron mimics the phase shift curve of DRB in Per2-dLuc cells. […] Using nascent seq experiment, we found DRB treatment repress majority genes expression, but exclusively activates E-box containing gene both in vitro (FIG. 4).
(red color). […] Thus, perhaps the partial inhibition of CDK9 stimulates, rather than represses, the transcription of E-box genes. Right napel is UCSC genome browser views of E-box containing (NR1D1 and DBP) or non-E-box containing (BMAL1 and CRY1) clock genes

kidney clocks = assay: Phase shift of kidney clock; type: cell-based
PER2 locus = assay: ChIP-qPCR analysis for the PER2 locus; type: cell-based
Procedure: Human and mouse circadian oscillators are driven by interlocked transcriptional and translational feedback loop. Bmal1 and Clock are transcriptional factors and function as positive arm to active negative arm genes transcription, including Per and Cry. Per and Cry are transcriptional repressor and feedback repress Bmal1/Clock's transcription activity thereby inhibit its own transcription. […] We also confirmed this by ChIP-qPCR experiments. Cordycepin treatment 30 min immediately release Cry1/2 and Ruvbl2 binding at Per2 gene promoter.

[1] = system: Per2-Luc reporter U2OS cells (D15); assay: Circadian phase shift cell assay in D15 cells, 384 well plate, Tecan, with or without pentostatin; type: cell-based, human; settings: for minimal effective concentration: Homo sapiens, U2OS, read-out: Cell Assay; for With Pentostadin Cell Assay: pentostatin 5 μg/ml
[2] = without pentostatin, concentration that shifts the circadian phase
[3] = concentration that shifts the circadian phase

SMILES: Nc1nccc2c1ncn2[C@@H]1O[C@H](CO)[C@@H](O)[C@H]1O [3-deazaadenosine, 3-Deazaadenosine]
- effect on the clock phase (Per2:luc U2OS cells): can shift circadian phase

SMILES: CCCCCCCC(=O)Nc1ncnc2c1ncn2[C@@H]1O[C@H](CO)[C@H](O)[C@H]1O [Pro-CA04, N-octanoyl-9-(P-D-xylofuranosyl)-adenine]
- adaption time after 8 phase advance (C57BL/6j mice; DMSO 10 days): ~5 days

SMILES: CCCCCCCC(=O)Nc1ncnc2c1ncn2[C@@H]1O[C@H](CO)[C@H](O)[C@H]1O [drawing 329]
- With Pentostadin Cell Assay: Dose effect (C57BL/6j mice): Dose effect (15 mg/kg)

SMILES: OC[C@H]1O[C@@H](n2cnc3c2NC=NC[C@H]3O)C[C@@H]1O [pentostatin]
- effect on the clock phase (Per2:luc U2OS cells): does not affect the clock phase
- effect on the clock phase (Per2:luc U2OS cells; listed as Pentostatin): does not affect the clock at all

SMILES: Nc1ncnc2c1ncn2[C@@H]1O[C@H](CO)[C@@H](O)[C@H]1O [adenosine]
- effect on phase effect induced by cordycepin (Per2:luc U2OS cells; excessive amount): inhibits the phase effect induced by cordycepin
- effect on the clock phase (Per2:luc U2OS cells): not

SMILES: Nc1ncnc2c1ncn2[C@@H]1O[C@H](CO)[C@H](O)[C@H]1O [(3′R)-adenosine, 3′-(R)-adenosine]
- effect on the clock phase (Per2:luc U2OS cells): can shift circadian phase

SMILES: OC[C@H]1O[C@@H](n2cnc3cc(Cl)c(Cl)cc32)[C@H](O)[C@@H]1O [DRB, 5,6-dichloro-1-β-D-ribobenzimidazole]
- clock phase of SCN slice (SCN culture slice): shift the phase
- nascent transcription of E-box genes (E-box genes; 1, 2, 4 h post administration): all up-regulated
- newly synthesized mRNA of the majority of genes (E-box genes; within the first hour): reduced
- clock phase of kidney (kidney clocks): shift the phase
- binding of BMAL1 at PER2 locus (PER2 locus): remained unchanged
- binding of CRY2/RUVBL2 at PER2 locus (PER2 locus): released

SMILES: CC1(CCC(=O)O[C@@H]2[C@H](O)[C@@H](COC(=O)CCCC(=O)NCCCOCCOCCOCCCNC(=O)CCCC[C@H]3SC[C@H]4NC(=O)N[C@H]43)O[C@H]2n2cnc3c(N)ncnc32)N=N1
- minimal effective concentration [1, 2]: > 500 µM
- With Pentostadin Cell Assay [1, 3]: 100 µM

SMILES: CCCCCCCC(=O)Nc1ncnc2c1ncn2[C@@H]1O[C@H](CO)C[C@H]1O
- With Pentostadin Cell Assay: Dose effect (C57BL/6j mice): Dose effect (15 mg/kg)

SMILES: [2H]c1nc(N)c2nc([2H])n([C@@H]3O[C@H](CO)C[C@H]3O)c2n1
- minimal effective concentration [1, 2]: 25 µM
- With Pentostadin Cell Assay [1, 3]: 12.5 µM

SMILES: Nc1ncnc2c1ncn2[C@@H]1O[C@H](CO)C(O)C1OC(=O)CCCC[C@@H]1SC[C@@H]2NC(=O)N[C@@H]21 (some centres unmarked)
- minimal effective concentration [1, 2]: > 500 µM
- With Pentostadin Cell Assay [1, 3]: 2 µM

SMILES: Nc1ncnc2c1c(I)cn2[C@@H]1O[C@H](CO)C(O)C1O (some centres unmarked)
- minimal effective concentration [1]: 0.3 µM

SMILES: COc1nc(N)c2ncn([C@@H]3O[C@H](CO)C(O)C3O)c2n1 (some centres unmarked)
- minimal effective concentration [1, 2]: > 500 µM
- With Pentostadin Cell Assay [1, 3]: 100 µM

SMILES: Nc1nc(Br)nc2c1ncn2[C@@H]1O[C@H](CO)C[C@H]1O
- minimal effective concentration [1, 2]: > 500 µM
- With Pentostadin Cell Assay [1, 3]: 100 µM

SMILES: Nc1ncnc2c1ccn2[C@@H]1O[C@H](CO)[C@@H](O)[C@H]1O [7-deazaadenosine, tubercidin]
- effect on the clock phase (Per2:luc U2OS cells): can shift circadian phase

SMILES: [2H]c1nc(N)c2nc([2H])n([C@@H]3O[C@H](CO)[C@H](O)[C@H]3O)c2n1 [drawing 353]
- minimal effective concentration [1, 2]: 12.5 µM
- With Pentostadin Cell Assay [1, 3]: 25 µM
